Each structure is given as a SMILES string.

The assay has as its system P. falciparum 3D7 growth, pLDH absorbance. In words: blood-stage malaria parasite growth potency – strain 3D7, dose response (AID 2305).
As a reminder, the IC50 is the concentration that inhibits the measured activity by half. High values mean weaker potency, low ones greater potency. Turning to `O=C(CCc1cnc[nH]1)Nc1ccc(-c2ccc(-c3nc4ccccc4[nH]3)cc2)cc1`, the IC50 is 710 nM.
`COc1ccc2nc3cc(Cl)ccc3c(NCCN3CCN(C)CC3)c2c1` showed a concentration for half-maximal inhibition (IC50) of 120 nM.
As to `Cc1ccc(NC(=O)c2ccc(CN3CCCN(Cc4cccc(O)c4)CC3)cc2)cc1F`, the IC50 stood at 590 nM.
With `Cc1cccc2[nH]c(-c3ccc(-c4ccc(CNCCCN5CCCC5=O)cc4)cc3)nc12` the figure was 630 nM; with `COC(=O)c1cccc(CNCc2cccc(-c3ccc(-c4nc5ccc(C(F)(F)F)cc5[nH]4)cc3)c2)c1`, 260 nM; with `O=C(c1ccc(-c2ccc(Cl)cc2)o1)N1CCc2cc3nccc(N4CCN5CCC[C@H]5C4)c3cc21`, 170 nM.
With `CC1CN(c2ccc(NC(=O)c3ccc(F)cc3)cc2)CCN1Cc1cccc(F)c1` (stereo not given) the figure was 1350 nM.
With `CC[C@H]1CN2CCc3cc(OC)c(OC)cc3[C@@H]2C[C@@H]1C[C@H]1NCCc2c1cc(OC)c(O)c2Cl` the figure was 140 nM.
Regarding `CC(C)(C)c1ccc(S(=O)(=O)Nc2cc(Cl)ccc2Cn2ccc(N3CCNCC3)nc2=O)cc1`, the IC50 is 830 nM.
With `COc1ccc2nccc(CCN3C[C@H](CNCc4ccc5c(n4)NC(=O)CS5)[C@H](O)C3)c2n1` the figure was 1460 nM; with `O=C(/C=C/c1ccc(Cl)c(Cl)c1)N1CCN(C(=O)Nc2ccc(F)c(Cl)c2)CC1`, 720 nM; with `O=C(Nc1ccc(Cl)cc1)Nc1ccc(Cn2ncc(N3CCCNCC3)c(Cl)c2=O)cc1`, 780 nM.
With `CNc1ccc(CNCc2ccc(-c3ccc(-c4nc5c(C)cccc5[nH]4)s3)cc2)cc1` the figure was 660 nM.
With `Cc1ccc([C@@H]2CC(=O)CC(c3ccccn3)[C@H]2[N+](=O)[O-])cc1` (stereo not given in full) the figure was 860 nM; with `CC(C)c1ccc(NC(=O)NC2CCN(CCCCCNC(=O)/C=C/c3ccc(Cl)c(Cl)c3)CC2)cc1`, 670 nM.
In turn, `C[C@H](Cc1ccc(OCCCCCCOc2ccccc2)cc1)NC[C@@H](O)c1cc(Br)no1` had an IC50 of 880 nM.
As for `Cn1ccnc1-c1nc2ccccn2c1NCC(=O)Nc1ccccc1N1CCCCC1`, the figure is 980 nM; as for `CN1CCCN(Cc2ccc(-c3ccc(NC(=O)c4ccc(C#N)cc4)cc3)cc2)CC1`, 1020 nM; as for `O=c1cc(NCCCCNCc2ccc(Br)c(Br)c2)[nH]c2ccccc12`, 860 nM.
With `Cc1ccc(CN2CCN(c3cc4c(cc3Cl)CCN4C(=O)Cc3ccc(Cl)c(NC(=O)Nc4cccc(C#N)c4)c3)CC2)cc1` the figure was 1130 nM; with `CC[C@@H]([C@@H](CC(C)C)C(=O)N[C@@H](CCCCNC(=O)OCc1ccccc1)C(=O)Nc1ccccn1)N(O)C=O`, 110 nM.
Consider `CC(CCc1ccccc1)NCC(O)c1ccc2c3c(cccc13)S(=O)(=O)N2C` (stereo not given), for which the IC50 was 630 nM.
With `CN(C)CCN(C)Cc1ccc(-c2cccc(NC(=O)c3cccc(C#N)c3)c2)cc1` the figure was 1180 nM.
`FC(F)(F)c1ccc2nc(-c3ccc(-c4cccc(CNCc5ccccc5)c4)s3)[nH]c2c1` came in with an IC50 of 150 nM.
With `O=C(NCCCCN1CCC(c2ccc3c(c2O)CCCC3)CC1)c1ccc(NC(=O)c2ccc(Cl)cc2)cc1` the figure was 240 nM; with `COc1ccc(-c2nonc2NC(=O)c2ccc(OC(C)C)cc2)cc1OC`, 630 nM; with `CN1CCC(NCc2ccc(-c3ccc(S(=O)(=O)NCc4ccccc4)s3)cc2)CC1`, 770 nM.
As for `CN(C)CCNCc1cccc(-c2ccc3c(Nc4cc(O)c(Cl)cc4F)ccnc3c2)c1`, the figure is 550 nM.
`Cc1nc(Nc2ccc(F)cc2)nc(N2CCc3cc(O)ccc3C2C)c1C` (stereo not given) came in with a concentration for half-maximal inhibition (IC50) of 750 nM.
With `CN(CCCNC(=S)NC12CC3CC(CC(C3)C1)C2)CCCNc1ccnc2cc(Cl)ccc12` the figure was 120 nM.
With `CN(C)Cc1ccc(O)c(-c2ccc(C(C)(C)C)cc2)n1` the figure was 1080 nM; with `Cc1nnc(-c2ccc3ccccc3c2)c2cn(-c3cccc([N+](=O)[O-])c3)nc12`, 990 nM.
As for `COc1cc2nc(N3CCC(CNC(=O)c4ccc(-c5ccc(C(=O)N(C)C)cc5)cc4)CC3)nc(N)c2cc1OC`, the figure is 750 nM; as for `Cc1cccc(OCC2CCN(c3ncc(C(=O)NC4CC4)cc3Cl)CC2)c1`, 1330 nM.
`O=C(NNC(=O)c1ccc(CCN2CCC(c3nc(COCC(F)(F)F)c(-c4ccc(F)cc4)o3)CC2)cc1)Nc1ccc(Oc2ccccc2)cc1` registered an IC50 of 710 nM.
In turn, `CN(C)c1ccc(-c2ccc(C(=O)NC3CCN(Cc4ccc(C(C)(C)C)cc4)CC3)s2)cc1` registered an IC50 of 970 nM.
As for `C[C@H](Cc1ccc(OCCCCCCCOc2ccc(C[C@@H](C)NC[C@H](O)c3cccc(Cl)c3)cc2)cc1)NC[C@H](O)c1cccc(Cl)c1`, the figure is 190 nM; as for `CCN(CC1CCN(CC2(O)CCOCC2)CC1)c1cc(C)nc(Nc2ccc(Cl)cc2)n1`, 410 nM; as for `O=C(Nc1cccc(CN2CCN(C(=O)c3cccs3)CC2)c1)c1cccs1`, 780 nM.
In turn, `CCOc1cc2c(cc1OCC)C(c1ccc(O)c(Cl)c1)NCC2` (stereo not given) yielded an IC50 of 790 nM.
As for `Cc1[nH]c2ccc(-c3ccccc3)cc2c(=O)c1Br`, the figure is 160 nM.
With `CCCN(CCC)CCCNc1ccc(C(=O)Nc2ccc(OCC)cc2)cc1[N+](=O)[O-]` the figure was 990 nM; with `CN(C)CCNCc1ccc(-c2ccc3c(Nc4ccc(F)cc4Cl)ccnc3c2)o1`, 140 nM.
With `CC(C)(C)c1ccc(CN2CCC(CNC(=O)c3cc(-c4cccc(C(F)(F)F)c4)cs3)C2)cc1` (stereo not given) the figure was 1030 nM; with `Cc1ccc(Nc2nc3cc(N(C)c4ccnc(Nc5cccc(CS(C)(=O)=O)c5)n4)ccc3o2)cc1`, 970 nM.
`CCCCCCn1c(Sc2ccc(C#N)c([N+](=O)[O-])c2)nnc1-c1cccs1` returned an IC50 of 710 nM.
In turn, `CCOc1cc(C(=O)NCCN(CC)c2cccc(C)c2)ccc1-c1nc2ccc(Cl)cc2[nH]1` yielded an IC50 of 810 nM.
As for `Cc1ccnc2nc(C(=O)Nc3cc(Cl)ccc3N3CCOCC3)nn12`, the figure is 1240 nM; as for `C=C1N(C)c2cc([N+](=O)[O-])c(N)cc2C1(C)C`, 490 nM; as for `COc1ccccc1C1CCN(C2CCC(NC(=O)/C=C/c3cc(F)cc(F)c3)CC2)CC1` (stereo not given), 1110 nM.
`Cc1noc(-c2ccccc2)c1NC(=O)N1CCN(CCCCCCNC(=O)/C=C/c2ccc(Cl)c(Cl)c2)CC1` returned a concentration for half-maximal inhibition (IC50) of 880 nM.
With `OCCN1CCN(c2nc(Nc3cccc(F)c3)c3cnn(-c4ccccc4)c3n2)CC1` the figure was 830 nM; with `CCN(CC)CCOc1cc2c(cc1Br)-c1cc(Br)c(OCCN(CC)CC)cc1C2=NO`, 1090 nM.
With `CN1CCN(Cc2ccc(OCc3cccc(COc4ccc(CN5CCN(C)CC5)cc4I)c3)c(I)c2)CC1` the figure was 1010 nM; with `COc1ccc(CN2CCC(N3CC(c4ccccc4)(c4ccccc4)OCC3=O)C2)c(O)c1` (stereo not given), 930 nM.
With `Cc1noc(C)c1-c1ccc2c(Nc3ccccc3N3CCOCC3)c(C(=O)NCc3ccccc3)cnc2c1` the figure was 1180 nM; with `COc1ccc(C(=O)[C@H]2C[C@@H]2CN2CC=C(c3c(C)[nH]c4ccccc34)CC2)cc1`, 300 nM.
Compound `CN(C)CCCNc1nccc(N(C)c2ccc(NC(=O)Nc3cc(C(F)(F)F)ccc3F)cc2)n1` returned an IC50 of 980 nM.
Turning to `COc1ccc(CN2CCC(CNCCc3ccccc3Oc3ccccc3)CC2)cc1`, the IC50 was 1100 nM.
The compound `COc1ccccc1C(C)NCC(=O)Nc1cccc(C(=O)Nc2cccc(C(F)(F)F)c2)c1` (stereo not given) gave an IC50 of 1530 nM.

For the origin of these results see PubChem BioAssay AID2305 (GlaxoSmithKline (GSK), 2010).
